Test results: patent publication US20220325233A1, “MEDIUM SUPPLEMENT FOR HIGH-YIELD INDUSTRIAL CULTURE OF FASTIDIOUS ANAEROBES AND MEDIUM COMPOSITION CONTAINING THE SAME” (priority 2020, published 2022)

System: Akkermansia muciniphila EB-AMDK19 (KCTC 13761BP) strain
Experiment: Growth (change in optical density, ΔOD600) in anaerobic batch culture
Format: cell-based
Conditions: for Growth (ΔOD600): after 72 hours of culture; for Growth (AOD 600): after 48 hours of culture
Method: In addition, in the following examples, the concentration of anaerobes (amount of biomass produced) was determined by measuring the optical density of the culture medium at 600 nm using a spectrophotometer during the culture period. ΔOD was calculated as the difference in absorbance between the initial stage of culture and after 48 hours (or 72 hours) of culture.
Based on soy casein digest broth (tryptic soy broth (TSB)), the optimal combination of substrates and components that can replace mucin was investigated.
Next, changes in the optical density (OD600) of the strain were measured, and the results of the measurement are shown in Table 3 below.
In addition, to find the optimal concentration of cobalamin, the strain was cultured while changing the concentrations of cobalamin, and then changes in the optical density (OD600) of the strain were measured.
In order to find the essential components necessary for high-concentration culture of anaerobes and an optimal combination thereof, the Akkermansia muciniphila strain was cultured in media having various combinations of components under the same conditions.
An experiment was performed in the same manner as in Example 1 above, except that the medium shown in Table 2 above were used and the kind of strain cultured was changed as shown in Table 7 below. Specifically, each Akkermansia muciniphila strain was inoculated into the medium at a ratio of 0.1% v/v, and then cultured at 37° C. under anaerobic conditions (90% N2, 5% CO2, and 5% H2) for 24 to 48 hours.

[1] = single vitamin added at 0.2 mg/L
[2] = single vitamin added at 0.1 mg/L

Cc1ncc(C[n+]2csc(CCO)c2C)c(N)n1 [Medium B1]
Growth (ΔOD600) [1]: 0.352

Cc1cc2nc3c(=O)[nH]c(=O)nc-3n(C[C@H](O)[C@H](O)[C@H](O)CO)c2cc1C [Medium B2]
Growth (ΔOD600) [2]: 0.334

O=C(O)c1cccnc1 [Medium B3]
Growth (ΔOD600) [1]: 0.342

CC(C)(CO)[C@@H](O)C(=O)NCCC(=O)O [Medium B5]
Growth (ΔOD600) [2]: 0.347

Cc1ncc(CO)c(CO)c1O [Medium B6]
Growth (ΔOD600) (single vitamin added at 0.5 mg/L): 0.337

O=C(O)CCCC[C@@H]1SC[C@@H]2NC(=O)N[C@@H]21 [Medium B7]
Growth (ΔOD600) (single vitamin added at 0.02 mg/L): 0.344

Nc1nc(=O)c2nc(CNc3ccc(C(=O)N[C@@H](CCC(=O)O)C(=O)O)cc3)cnc2[nH]1 [Medium B9]
Growth (ΔOD600) (single vitamin added at 0.05 mg/L): 0.348

Nc1ccc(C(=O)O)cc1 [Medium B10]
Growth (ΔOD600) [2]: 0.335

Cyanocobalamin
Growth (AOD 600) (Cyanocobalamin 0.05 mg/L): 0.563 ± 0.012
Growth (AOD 600) (Cyanocobalamin 0.1 mg/L): 0.576 ± 0.014
Growth (AOD 600) (Cyanocobalamin 0.2 mg/L): 0.577 ± 0.008
Growth (AOD 600) (Cyanocobalamin 0.5 mg/L): 0.575 ± 0.011
Growth (AOD 600) (Cyanocobalamin 1 mg/L): 0.581 ± 0.003
Growth (AOD 600) (Cyanocobalamin 5 mg/L): 0.571 ± 0.007
optimal concentration in the medium (from Table 5 concentration series): 0.1 mg/L
Growth (ΔOD600) [2]: 0.575
